Here are results for four molecules from US7491705B2, “Alpha-ketoamide derivative, and production method and use thereof” (Senju Pharmaceutical Co., Ltd., priority 2003, dated 2009).

Values after ≈ are worked out from the molar mass of the structure shown.

Series [1] is described as follows: Partition coefficient using IAM column. Particulars: IAM Fast Screening Mini-Column; Dulbecco's phosphate buffer (pH 7.4). In kind it is physicochemical. The protocol:
Analysis by HPLC system was carried out under the conditions given below, and retention time of each substance was measured. • Column: IAM Fast Screening Mini-Column (Regis Technologies, Inc.) • Mobile phase: Dulbecco's phosphate buffer (pH 7.4) • Detection wavelength: 250 nm • Column temperature: room temperature • Injection amount: 5.0 to 20 μL • Flow rate: 0.5 mL/min • Sample solution: 5 mg of sample was dissolved in 100 μL of acetonitrile, and a mobile phase was added to make 1 mL of a sample solution.
The measured value was inserted into the following formula, and the partition coefficient (K′ IAM) was calculated. k′IAM=(tR−t0)/t0 t0: retention time of the peak derived from acetonitrile tR: retention time of the peak of the sample

Series [2] in a line: Solubility in 10 mM phosphate buffer (pH 7.0). The format is physicochemical. As for the experimental part:
Solubility of the compounds of the present invention in 10 mM phosphate buffer (pH 7.0) was measured.

Series [3] can be described thus: Transportation rate into blood after oral administration. The format is in vivo, Macaca fascicularis (crab-eating monkey). Conditions: cynomolgus monkey, 10 mg/kg, Macaca fascicularis, plasma; for AUC(0-t): read-out: AUC 0→4 hr. The protocol: The compound of the present invention was administered orally to Macaca fascicularis (crab-eating monkey) at a dose of 10 mg/kg. The blood was collected with the lapse of time, and the concentration of each compound in the plasma was measured.

The nature of the next series: in vitro. Particulars: human, Caco-2.
The subject of a further series is ganglion cells of retina. Kind of series: Rat retinal ischemia reperfusion injury. The format is in vivo. Conditions: 100 mg/Kg oral, 15 minutes before ischemia and immediately after release, 7 days after reperfusion, P<0.05 vs control. The protocol: Male SD rats (body weight: 150-200 g, purchased from Charles River Japan, Inc.) were used. For anesthesia, a mixture of equivalent amounts of 50 mg/mL ketamine injection and 20 mg/mL xylazine injection was administered intramuscularly at 1.0 mL/Kg body weight into the femora of the rats 15 minutes before ischemia. To achieve ischemia, the optic nerve including central retinal artery was ligated using a Sugita Clip minitype (No. 98), and the blood flow was blocked for 55 minutes. Such ligation was released 55 minutes after the above ligation, and blood flow was made to run again into retina (hereinafter, referred to as ischemia reperfusion). For normal group, central retinal artery was only exposed and ischemia was not set up. After 7 days from reperfusion in ischemia, a tissue specimen was prepared. For preparation of the tissue specimen, an excess amount of pentobarbital solution was intraperitoneally administered to sacrifice the animal, and eyeball was enucleated. The enucleated eyeball was dipped and fixed for 24 hours in a fixing solution of 2% paraformaldehyde and 2.5% glutaraldehyde (0.1 M phosphate buffer, pH 7.4). […] The stained sections were observed under an optical microscope, and ganglion cells of retina per 0.25 mm width of retina section at 1-2 mm from the center of the optic disc were counted. […]

The test system of a further series is Caco-2 cells. Put plainly: Permeability test with Caco-2 cells. Particulars: apical pH 6.5 → basolateral pH 7.4; 10 μm sample; 37° C.

Method for Caco-2 cells: (§1) As a culture medium for the incubation, Dulbecco's modified Eagle's minimum essential medium (GIBCO BRL) supplemented with 10% fetal calf serum (GIBCO BRL), antibiotic-antimycotic mixture, liquid (GIBCO BRL), non-essential amino acid solution (GIBCO BRL) and 2 mmol/L L-glutamine (GIBCO BRL) was used. […] Propranolol was used as a positive control, and ^14C-mannitol was used as a negative control. LC-MS/MS was used for quantitative analysis of samples, and a liquid scintillation counter was used for quantitative analysis of ^14C-mannitol.
(§2) Papp: apparent permeation coefficient (cm/sec)
δQ/δt: permeation velocity (pmol/min)
A: area of monolayer cell=0.33 cm^2
(§3) C0: initial concentration at apical membrane side (pmol/mL)
Method for in vitro: as §1, §2
δQ/δt: permeation velocity (pmol/min)
A: area of monolayer cell=0.33 cm^2
as §3

For `COCCOC(=O)N[C@@H](CC(C)C)C(=O)N[C@@H](Cc1ccccc1)C(=O)C(=O)NC1CC1` [Compound 4, ((1S)-1-((((1S)-1-Benzyl-2,3-dioxo-3-(cyclopropylamino)propyl)amino)carbonyl)-3-methylbutyl)carbamic acid 2-methoxyethyl ester], the “IAM (Log k′IAM)” value in series [1] came out at 1.20. The molecule also came in with a Solubility in series [2] of 1300 µg/mL (≈ 2900 µM). Further, in series [3], the highest level (Cmax) was 1200 nM and the AUC(0-t) stood at 1.9 µM·h. Also, the Papp A→B at 10 μm in “in vitro” stood at 2.7 ×10⁻⁶ cm/s.
For `COCCOCCOC(=O)N[C@@H](CC(C)C)C(=O)N[C@@H](Cc1ccccc1)C(=O)C(=O)NC1CC1` [Compound 17, ((1S)-1-((((1S)-1-Benzyl-2,3-dioxo-3-(cyclopropylamino)propyl)amino)carbonyl)-3-methylbutyl)carbamic acid 5-methoxy-3-oxapentyl ester], the “Ganglion cell count after retinal ischemia reperfusion” value in the series with ganglion cells of retina is recorded as “significantly suppressed the decrease”. In series [1], the “IAM (Log k′IAM)” value amounted to 1.27. The same molecule displayed a Solubility in series [2] of 650 µg/mL (≈ 1320 µM). Also, in series [3], the highest level (Cmax) was 1100 nM and the AUC(0-t) is 2.4 µM·h.
With `CC(C)NCC(O)COc1cccc2ccccc12` (stereo not shown) [Propranolol, reference compound], the “IAM (Log k′IAM)” value in series [1] is 1.95. Besides, the Papp A→B at 10 μm in “in vitro” is 8.5 ×10⁻⁶ cm/s.
Regarding `OCC(O)C(O)C(O)C(O)[14CH2]O` (stereo not shown) [^14C-Mannitol, ^14C-mannitol], the “Caco-2 Papp(a−b)” value with Caco-2 cells is on record as 0.6 (cms^−1) × 10^−6.
